The text below walks through data of patent US11020378B2, “Compounds, compositions and methods for treating insulin resistance” (UNIVERSITE PARIS DESCARTES, priority 2017, dated 2021).

Where two headings read alike, the source gives them in different places.

One test has as its system PI3K/Akt pathway. In words: Luc-Akt-PH/YFP-membrane BRET in HEK293T cells (recruitment of Akt to the membrane). Format: cell-based. Conditions: for effect on the recruitment of kinase Akt to the membrane: in the absence of the hormone. From the text: To measure the activity of the PI3-kinase pathway by the BRET technique, HEK293T cells are transfected with plasmids allowing, on the one hand, the expression of the PH (Pleckstrin Homology) domain of the Akt protein which has been fused to the luciferase and, on the other hand, a membrane-addressing sequence which has been fused to the YFP protein. When the PH domain of Akt is recruited to the membrane by the PIP3s, an energy transfer between the luciferase that is coupled to the PH domain of Akt and the membrane YFP protein takes place. The measured BRET signal is a control of the production of PIP3s at the membrane and is a reflection of the activation of the PI-3-kinase/Akt pathway in real time on cells.

The target in another test is T1, IR-Grb14 interaction (Homo sapiens, UniProt P06213).
T1 construct: a vector encoding the insulin receptor fused to the luciferase (IR-Luc); made in house; host or cells: HEK293T (transfected); IR-Luc was partially purified on wheat germ lectin sepharose; Grb14-YFP was used as crude lysate
T1 sequence (P06213 763-1382 limits assumed): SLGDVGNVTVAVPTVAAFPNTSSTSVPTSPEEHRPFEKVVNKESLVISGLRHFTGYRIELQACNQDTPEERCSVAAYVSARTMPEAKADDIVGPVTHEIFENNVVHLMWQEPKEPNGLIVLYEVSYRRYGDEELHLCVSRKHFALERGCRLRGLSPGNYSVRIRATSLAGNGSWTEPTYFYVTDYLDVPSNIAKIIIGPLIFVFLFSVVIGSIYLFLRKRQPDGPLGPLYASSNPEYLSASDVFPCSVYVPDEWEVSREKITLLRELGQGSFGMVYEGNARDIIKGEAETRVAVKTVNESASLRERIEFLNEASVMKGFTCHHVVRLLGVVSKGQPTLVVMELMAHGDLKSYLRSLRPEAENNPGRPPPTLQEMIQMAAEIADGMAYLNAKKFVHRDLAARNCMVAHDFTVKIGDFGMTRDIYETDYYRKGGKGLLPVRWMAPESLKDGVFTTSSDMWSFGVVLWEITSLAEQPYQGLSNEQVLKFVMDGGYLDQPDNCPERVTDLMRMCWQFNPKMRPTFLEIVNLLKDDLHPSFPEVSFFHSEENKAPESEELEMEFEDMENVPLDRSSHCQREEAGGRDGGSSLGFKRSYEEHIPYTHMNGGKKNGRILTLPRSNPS
T1 sequence (P06213 28-758 partner limits assumed): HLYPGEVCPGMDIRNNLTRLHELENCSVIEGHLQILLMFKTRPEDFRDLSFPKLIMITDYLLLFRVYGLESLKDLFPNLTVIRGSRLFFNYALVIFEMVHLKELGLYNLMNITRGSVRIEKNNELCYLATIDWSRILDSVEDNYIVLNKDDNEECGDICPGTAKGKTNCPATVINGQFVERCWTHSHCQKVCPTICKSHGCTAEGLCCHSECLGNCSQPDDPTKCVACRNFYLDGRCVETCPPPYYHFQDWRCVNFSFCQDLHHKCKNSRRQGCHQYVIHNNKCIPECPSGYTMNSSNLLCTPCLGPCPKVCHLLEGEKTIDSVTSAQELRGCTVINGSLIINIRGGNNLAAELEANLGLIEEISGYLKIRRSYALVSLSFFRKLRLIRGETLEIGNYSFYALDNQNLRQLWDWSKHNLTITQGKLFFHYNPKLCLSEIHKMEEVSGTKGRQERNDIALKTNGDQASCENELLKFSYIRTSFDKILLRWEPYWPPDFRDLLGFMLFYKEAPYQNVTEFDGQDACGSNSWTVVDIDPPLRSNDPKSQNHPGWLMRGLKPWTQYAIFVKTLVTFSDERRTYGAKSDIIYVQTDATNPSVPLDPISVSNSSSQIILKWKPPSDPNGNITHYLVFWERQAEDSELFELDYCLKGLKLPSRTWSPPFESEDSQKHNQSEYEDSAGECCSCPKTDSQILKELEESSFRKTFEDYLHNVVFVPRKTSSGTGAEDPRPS
Nature of the test: IR-Luc/Grb14-YFP BRET technique in a cell-free system. The class given is binding. The settings on record: for % BRET signal/DMSO control / remaining activity at 50 µM: insulin stimulation (100 nM). How it is done: Compounds according to the invention were experimentally assessed for their inhibitory effect on the IR-Grb14 interaction by a BRET technique in a cell-free system described briefly below.
On the one hand, HEK293T cells were transfected with a vector encoding the insulin receptor fused to the luciferase (IR-Luc). Before lysis, the cells transfected with IR-Luc were stimulated or not with 100 nM insulin for 10 minutes. The IR-Luc lysates were recovered and then purified on sepharose beads coupled with wheat germ lectin (WGL for Wheat Germ Lectin). The IR-Luc receptors were then eluted and then frozen in liquid nitrogen before being stored at −80° C. On the other hand, HEK293T cells were transfected either with a vector encoding the Grb14 protein fused to the YFP (Grb14-YFP), or with the empty plasmid pcDNA3. The cells transfected with Grb14-YFP or with the empty plasmid pcDNA3 were lysed 48 h after transfection. After centrifugation, the lysates are recovered and frozen at −80° C.
The insulin receptors (IR-Luc) partially purified from cells stimulated or not with insulin were incubated for 20 minutes with the inhibitor compounds according to the invention suspended in DMSO. The cellular extracts from cells transfected with Grb14-YFP (or the empty plasmid pcDNA3) were then added and then after 40 minutes of incubation, coelenterazine was added and BRET reading was initiated. The results are expressed as a percentage of the BRET signal obtained in the presence of the molecules tested compared to the BRET signal of the DMSO control.
Background: In BRET a luciferase serves as donor, and the signal depends on an acceptor being close.

Test [1] deals with PEPCK and G6Pase expression. In words: Expression of neoglucogenesis genes in hepatocytes in primary culture (RT-qPCR). The settings on record: 1 nM insulin; glucagon 10 nM. The class given is cell-based, mice. Here is the method:
FIG. 6, the effect of the compound of Formula (Ia) according to the invention (black bars) on the expression of insulin target genes, PEPCK (FIG. 6A) and G6Pase (FIG. 6B), involved in the neoglucogenesis pathway. Hepatocytes in primary culture are cultured for 8 h in the presence of compounds of Formula (Ia) (50 μM), insulin (1 nM) and glucagon (pre-incubation 1 h at 10 nM). The relative quantification of mRNAs is performed by RT-qPCR. The values are related to the quantification of the 18S gene in the same sample in order to normalize the results. The results are the average of 3 to 5 independent experiments (*p<0.05, **p<0.01, by Anova followed by a Newman-Keuls test).
To study the inhibitory effect of insulin on neoglucogenesis gene expression, hepatocytes from mice in primary culture were pre-incubated with 10 nM glucagon.
(In qPCR the cycle at which signal appears reflects the starting amount.)

[2] abbreviates: read-out: % BRET signal/DMSO control, 50 μM.
Where [3] appears, read: in the presence of insulin (5 nM).

For `CC(C)(C)c1cc(C=C(C#N)C#N)cc(Br)c1O` [AG1024, reference compound], the “BRET signal after inhibition of tyrosine kinase activity of the insulin receptor” value with PI3K/Akt pathway (pre-incubation 1 h with 25 μM) is recorded as “very significant drop”.
As for `CCOc1cc(C=C2C(=O)NC(=O)NC2=O)ccc1OCc1cccc(C(=O)O)c1` [Comparative A], on IR-Grb14 interaction (50 μM), the “significant decrease in the BRET signal / reduction in the IR-Grb14 interaction (in words)” value is given as “do not allow for a significant decrease” and the “% BRET signal/DMSO control” value is reported as 103% (+/−15%).
In the same order, the values of `CCOc1cc(C=C2C(=O)NC(=O)NC2=O)ccc1OCc1cccc(C(=O)O)c1` [Comparative B] are “do not allow for a significant decrease” and 93% (+/−7%).
For `CCOc1cc(C=C2C(=O)NC(=O)NC2=O)ccc1OCc1cccc(C(=O)O)c1` [Comparative C], on IR-Grb14 interaction (50 μM), the “significant decrease in the BRET signal / reduction in the IR-Grb14 interaction (in words)” value is listed as “do not allow for a significant decrease” and the “% BRET signal/DMSO control” value is 103% (+/−8%).
For the compound `CCOc1cc(C=C2C(=O)NC(=O)NC2=O)ccc1OCc1cccc(C(=O)O)c1` [Comparative D], at IR-Grb14 interaction (50 μM), the “significant decrease in the BRET signal / reduction in the IR-Grb14 interaction (in words)” value is on record as “do not allow for a significant decrease” and the “% BRET signal/DMSO control” value is on record as 121% (+/−8%).
`CCOc1cc(C=C2C(=O)NC(=O)NC2=O)ccc1OCc1cccc(C(=O)O)c1` [Comparative E]: on IR-Grb14 interaction (50 μM), the “significant decrease in the BRET signal / reduction in the IR-Grb14 interaction (in words)” value is on record as “do not allow for a significant decrease” and the “% BRET signal/DMSO control” value is listed as 98% (+/−9%).
In the same order, the values of `CCOc1cc(C=C2C(=O)NC(=O)NC2=O)ccc1OCc1cccc(C(=O)O)c1` [Comparative F] are “do not allow for a significant decrease” and 93% (+/−24%).
Consider `Cc1ccc(/C=C/C(=O)O)o1` [Comparative IVa, (E)-3-(5-methylfuran-2-yl)acrylic acid, reference compound], for which, at IR-Grb14 interaction (50 μM), the “significant decrease in the BRET signal / reduction in the IR-Grb14 interaction (in words)” value was “do not allow for a reduction”. Further, the remaining activity at 50 µM on IR-Grb14 interaction (setting [2]) was 91%. In addition, the “effect on the recruitment of kinase Akt to the membrane” value in the test on PI3K/Akt pathway was “no effect”. In the test with PI3K/Akt pathway (setting [3]), the BRET delta was −61 (+/−35) and the “reduction of the recruitment of the Akt protein to the membrane” value is recorded as “about 50%”.
In the case of `Cc1noc(NS(=O)(=O)c2ccc(N)cc2)c1C` [Comparative Va, 4-amino-N-(3,4-dimethyl-1,2-oxazol-5-yl)benzenesulfonamide, reference compound], the “significant decrease in the BRET signal / reduction in the IR-Grb14 interaction (in words)” value on IR-Grb14 interaction (50 μM) is reported as “do not allow for a reduction”. Also, on IR-Grb14 interaction (setting [2]), the remaining activity at 50 µM was 98%. Further, the “effect on the recruitment of kinase Akt to the membrane” value in the test with PI3K/Akt pathway is “no effect”. In the test with PI3K/Akt pathway (setting [3]), the BRET delta is reported as −27 (+/−23) and the “effect on the production of PIP3s at the membrane” value is on record as “no effect”.
Consider `COc1cc(C=C2C(=O)NC(=S)NC2=O)ccc1OCc1cccc(C(=O)O)c1` [IIc], for which, at IR-Grb14 interaction (50 μM, with insulin stimulation), the “decrease in the BRET signal between the insulin receptor and the Grb14 protein” value is reported as 25%. Besides, on IR-Grb14 interaction (setting [2]), the remaining activity at 50 µM came to 75%.
For the compound `O=C1NC(=S)NC(=O)C1=Cc1ccc(OCc2cccc(C(=O)O)c2)cc1` [IId], the remaining activity at 50 µM at IR-Grb14 interaction (setting [2]) turned out to be 69%. In addition, in the test with PI3K/Akt pathway (without insulin), the BRET delta was 67 (+/−33).
Take `CCOc1cc(C=C2C(=O)NC(=S)NC2=O)ccc1OCc1ccc(C(=O)O)cc1` [IIe]: on IR-Grb14 interaction (setting [2]), the remaining activity at 50 µM turned out to be 65%. In addition, the BRET delta in the test with PI3K/Akt pathway (without insulin) is on record as 96 (+/−50).
For the compound `CCOc1ccc(/C=C2/C(=O)NC(=S)N(c3ccccc3)C2=O)cc1C(=O)O` [IIf], the remaining activity at 50 µM on IR-Grb14 interaction (setting [2]) was determined as 65%. The BRET delta in the test with PI3K/Akt pathway (without insulin) was 54 (+/−44).
As for `CCc1ccc(/C=C/C(=O)Nc2ccc(S(=O)(=O)Nc3onc(C)c3C)cc2)o1` [Ib], the remaining activity at 50 µM at IR-Grb14 interaction (50 μM, read-out: % BRET signal/DMSO control) was determined as 58%. Also, the BRET delta with PI3K/Akt pathway (without insulin) is given as 119 (+/−26).
In the case of insulin, in test [1], the “inhibition of glucagon-induced G6Pase expression” value lay within 60 to 70% and the “inhibition of glucagon-induced PEPCK expression” value is given as 60 to 70%. In addition, the “effect on the recruitment of the Akt protein to the membrane after AG1024” value with PI3K/Akt pathway (cells pre-incubated 1 h with 25 μM AG1024, Ia 50 μM, insulin 5 nM) is listed as “no longer have any effect”. Moreover, the BRET delta entry in the test on PI3K/Akt pathway (insulin 5 nM alone) is “about 100”.
